What all share (experiment): biochemical
Holding throughout (parameters): Eurofins DiscoverX kinase panel, competitive binding assay at 1 uM, percent of DMSO control
Common to all, as to details: competitive binding, percent of DMSO control

Assay [1] concerns the target T1, Aurora 2 (Homo sapiens, UniProt O14965).
T1 construct: gene AURKA
T1 sequence (O14965 1-403): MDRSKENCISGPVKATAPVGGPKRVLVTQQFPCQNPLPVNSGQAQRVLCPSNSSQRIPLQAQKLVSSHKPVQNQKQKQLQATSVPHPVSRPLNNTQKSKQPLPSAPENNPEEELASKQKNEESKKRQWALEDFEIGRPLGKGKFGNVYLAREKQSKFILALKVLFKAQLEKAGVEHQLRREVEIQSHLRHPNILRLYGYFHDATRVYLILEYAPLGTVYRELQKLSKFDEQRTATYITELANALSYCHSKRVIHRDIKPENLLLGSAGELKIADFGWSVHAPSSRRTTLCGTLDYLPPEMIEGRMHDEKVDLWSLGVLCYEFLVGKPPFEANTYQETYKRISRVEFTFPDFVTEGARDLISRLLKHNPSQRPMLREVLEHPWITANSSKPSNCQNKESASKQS
In outline:
(§1)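 Single-point profiling at 1 µM compound in a competition-binding format against 96 kinases, read out as POC relative to control; n = 1.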

In assay [2] the target is T2, MEK5 (Homo sapiens, UniProt Q13163).
T2 construct: gene MAP2K5
T2 sequence (Q13163 1-448): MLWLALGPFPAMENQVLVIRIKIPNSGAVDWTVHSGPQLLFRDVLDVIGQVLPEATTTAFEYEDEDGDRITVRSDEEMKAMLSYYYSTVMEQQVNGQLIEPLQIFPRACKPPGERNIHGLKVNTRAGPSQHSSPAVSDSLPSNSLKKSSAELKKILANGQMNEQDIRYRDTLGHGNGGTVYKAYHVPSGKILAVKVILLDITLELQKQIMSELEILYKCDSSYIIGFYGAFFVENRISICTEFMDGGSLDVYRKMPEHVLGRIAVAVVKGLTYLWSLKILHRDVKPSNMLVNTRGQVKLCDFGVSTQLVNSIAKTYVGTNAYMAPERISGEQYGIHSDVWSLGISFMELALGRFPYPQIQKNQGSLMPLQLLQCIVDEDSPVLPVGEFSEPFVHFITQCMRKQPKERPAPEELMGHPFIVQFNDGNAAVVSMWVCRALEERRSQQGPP
The gist of the method: as §1

Assay [3] addresses MARK1 (Homo sapiens, UniProt Q9P0L2). The gist of the method:
as §1

Assay [4] addresses T3, PI3K alpha (Homo sapiens, UniProt P42336).
T3 construct: gene PIK3CA
In outline:
as §1

Where [5] appears, read: read-out: Kinome Profiling performed by Eurofins DiscoverX / AM-0277, 1.0 µM / POC.
Where [6] appears, read: read-out: Kinome Profiling performed by Eurofins DiscoverX / AM-1882, 1.0 µM / POC.
The mark [7] stands for this setting: read-out: Kinome Profiling performed by Eurofins DiscoverX / AM-5308, 1.0 µM / POC.

Structures are written as SMILES. Like-named read-outs stand apart in the source and are kept apart here.

T3 sequence (P42336 whole entry): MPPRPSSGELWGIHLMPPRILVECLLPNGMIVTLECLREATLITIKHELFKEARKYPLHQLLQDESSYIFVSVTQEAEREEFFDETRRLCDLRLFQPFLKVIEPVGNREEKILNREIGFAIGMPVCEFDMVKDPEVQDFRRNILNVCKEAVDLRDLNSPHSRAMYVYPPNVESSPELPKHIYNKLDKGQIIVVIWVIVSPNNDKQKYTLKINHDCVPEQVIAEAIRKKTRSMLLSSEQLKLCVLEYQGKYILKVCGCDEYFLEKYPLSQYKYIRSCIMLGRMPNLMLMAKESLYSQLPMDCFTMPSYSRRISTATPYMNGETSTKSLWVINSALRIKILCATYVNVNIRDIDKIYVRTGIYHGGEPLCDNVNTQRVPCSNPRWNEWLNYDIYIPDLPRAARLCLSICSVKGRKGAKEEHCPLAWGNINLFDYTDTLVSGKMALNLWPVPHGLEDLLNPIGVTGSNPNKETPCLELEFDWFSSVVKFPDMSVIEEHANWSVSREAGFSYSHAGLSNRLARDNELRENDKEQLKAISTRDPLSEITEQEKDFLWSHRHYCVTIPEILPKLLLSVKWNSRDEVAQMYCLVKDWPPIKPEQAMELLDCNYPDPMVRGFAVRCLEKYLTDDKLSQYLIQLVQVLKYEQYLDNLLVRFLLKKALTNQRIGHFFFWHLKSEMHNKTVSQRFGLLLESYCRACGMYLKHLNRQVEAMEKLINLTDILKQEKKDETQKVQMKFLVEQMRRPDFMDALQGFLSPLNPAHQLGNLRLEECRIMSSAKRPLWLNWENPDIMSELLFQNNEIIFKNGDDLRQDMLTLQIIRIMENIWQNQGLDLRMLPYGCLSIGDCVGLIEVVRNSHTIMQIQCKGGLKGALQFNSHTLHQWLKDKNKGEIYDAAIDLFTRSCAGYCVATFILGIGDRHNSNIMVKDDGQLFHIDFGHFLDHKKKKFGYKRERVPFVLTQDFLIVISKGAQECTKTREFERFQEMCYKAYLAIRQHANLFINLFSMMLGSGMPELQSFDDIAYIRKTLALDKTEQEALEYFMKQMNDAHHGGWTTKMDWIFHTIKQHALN
MARK1, sequence (Q9P0L2 whole entry): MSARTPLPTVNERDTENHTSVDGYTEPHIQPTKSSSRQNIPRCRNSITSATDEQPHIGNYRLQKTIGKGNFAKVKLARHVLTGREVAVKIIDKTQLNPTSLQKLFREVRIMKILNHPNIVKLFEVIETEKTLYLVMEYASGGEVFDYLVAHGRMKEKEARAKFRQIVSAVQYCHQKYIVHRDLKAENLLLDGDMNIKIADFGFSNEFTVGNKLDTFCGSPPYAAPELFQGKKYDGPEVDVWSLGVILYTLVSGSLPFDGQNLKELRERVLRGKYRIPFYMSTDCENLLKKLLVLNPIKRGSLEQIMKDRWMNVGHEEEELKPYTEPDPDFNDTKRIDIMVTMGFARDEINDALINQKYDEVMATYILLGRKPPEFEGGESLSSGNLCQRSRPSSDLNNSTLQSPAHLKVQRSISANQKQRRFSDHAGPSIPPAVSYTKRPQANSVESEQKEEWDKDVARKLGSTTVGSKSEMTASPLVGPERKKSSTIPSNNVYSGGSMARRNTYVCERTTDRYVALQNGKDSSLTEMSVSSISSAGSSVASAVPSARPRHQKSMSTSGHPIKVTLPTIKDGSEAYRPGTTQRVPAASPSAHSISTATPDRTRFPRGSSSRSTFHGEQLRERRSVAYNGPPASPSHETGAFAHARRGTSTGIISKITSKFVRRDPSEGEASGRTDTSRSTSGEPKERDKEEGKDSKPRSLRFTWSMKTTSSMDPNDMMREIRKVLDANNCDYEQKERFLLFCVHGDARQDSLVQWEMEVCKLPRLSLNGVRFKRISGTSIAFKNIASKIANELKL

Regarding `CC(C)(CO)Nc1ccc(C(=O)Nc2cccc(S(=O)(=O)C3CCCC3)c2)c(N2CCC3(CC2)CC3)n1` [AM-0277], the remaining activity at 1 µM in assay [1] (setting [5]) was determined as 100%; in assay [2] (setting [5]), 86%; in assay [3] (setting [5]), 96%; in assay [4] (setting [5]) it was 100%.
For the molecule `CC(C)(C)NS(=O)(=O)c1cccc(NC(=O)c2ccc(S(=O)(=O)NC(C)(C)C)cc2N2CCC3(CC2)CC3)c1` [AM-1882], the remaining activity at 1 µM in assay [1] (setting [6]) was determined as 100%; in assay [2] (setting [6]), 38.5%; in assay [3] (setting [6]), 100%; in assay [4] (setting [6]), 100%.
Take `C[C@@H]1CN(c2cccc(NC(=O)c3ccc(NS(=O)(=O)CCO)cc3N3CCC4(CC3)CC4)n2)CCO1` [AM-5308]: the remaining activity at 1 µM in assay [1] (setting [7]) was 100%; in assay [2] (setting [7]), 99.5%; in assay [3] (setting [7]), 98.5%; in assay [4] (setting [7]) it was 91.5%.

(Values after paper PMC10824666 (Nature Cancer, 2023).)
